Target: T1, human intermediate-conductance Ca2+-activated K+ channels (hIK channels) (Homo sapiens, UniProt O15554)
T1 construct: expressed in transfected cells
Experiment: Block of IK channels, whole-cell patch-clamp
Type: cell-based
Details: hIK cloned from human placenta, stably expressed in HEK293 cells; Ki = koff/kon from kinetics of the block
Procedure: In this example the ability of the compounds of the invention to inhibit human intermediate-conductance Ca^2+-activated K^+ channels (hIK channels) is examined.
hIK channels have been cloned from human placenta and stably expressed in HEK293 cells. The ionic current through the channels is recorded in the whole-cell mode of the patch-clamp technique.
A Ki value is calculated from the kinetics of the block.
The inhibition of the current is assumed to occur by a simple drug (D)−receptor (R) interaction after the following scheme: [drawing 3]
This is a simple bimolecular reaction, which integrated under non-equalibrium conditions are described by the equation: It=I0*(1−(C/C+(koff/kon)))*(1−exp(−(C* kon+koff)*t))) • wherein, • It=current at time t in nA • koff=off-rate in s^−1 • I0=basal current in nA • kon=on-rate in M^−1s^−1 • C=drug concentration in μM
By using the equation above, a fit to the time-course of the decrease in current yields the values koff and kon. Ki equals the ratio koff/kon, and Ki is the test value to be reported. At t=∞ (equalibrium) the equation simplifies to the Michaelis-Menten equation with Ki=IC50.

Ki [nM]	Structure (SMILES)
530	NC(CSC(c1ccc(F)cc1)(c1ccc(F)cc1)c1ccccc1F)=NO [Compound 6, 2-[(2-Fluoro-phenyl)-bis-(4-fluoro-phenyl)-methanesulfanyl]-N-hydroxy acetamidine]
2200	N#CC(CC(=O)O)(c1ccc(F)cc1)c1ccc(F)cc1 [Compound 2, 3-Cyano-3,3-bis-(4-fluoro-phenyl)-propionic acid]
65	N#CC(Cc1ccccn1)(c1ccc(F)cc1)c1ccc([N+](=O)[O-])c(C(F)(F)F)c1 (stereo not shown) [Compound 8, 2-(4Fluoro-phenyl)-2-(4-nitro-3-trifluoromethyl-phenyl)-3-pyridin-2-yl-propionitrile]
1400	CCOC(=O)CCC(C#N)(c1ccc(F)cc1)c1ccc(F)cc1 [Compound 4, Ethyl 4-cyano-4,4-bis-(4-fluoro-phenyl) butyrate]

Source: patent US20070027205A1, “Diarylmethyl derivatives as potassium channel modulators” (priority 2003, published 2007)
